Test results taken from patent US20110166194A1, “Asenapine Prodrugs” (Alkermes, Inc., priority 2010, published 2011).

Experiments:
[1] = test system: serotonergic (5-HT2A, 5-HT2C, 5-HT6, 5-HTS), noradrenergic (α2A, α2B, α2C) and dopaminergic (D3, D4) receptors; settings: background; cited from earlier work
muscarinic receptors = settings: background; cited from earlier work
[2] = Solution stability of asenapine prodrugs as a function of pH; type: physicochemical; settings: 0.01M buffers pH 2.11-9.01, 25° C., HPLC after 1, 4, 10 and 24 hours; FIG. 1 and 2
Experimental: The asenapine derived prodrugs were prepared at approximately 300 ug/mL in buffers (see table of buffers below). The initial ratio of prodrug/parent was measured using a freshly prepared solution in unbuffered water. Acetonitrile was titrated into all samples as needed to ensure the complete dissolution of the compounds. The amount of acetonitrile varied depending on the solubility of each compound (see Note 1). 1.5 mL of each stability sample was transferred into a HPLC vial and the vials were maintained at 25° C. in the temperature controlled sample compartment of the HPLC. Each sample was assayed by HPLC after 1, 4, 10, and 24 hours for prodrug and asenapine content (see Note 2).
The fraction of prodrug remaining at each time point was calculated as;
Fraction Prodrug=(HPLC Area of Prodrug)/(HPLC area of prodrug+asenapine) (see Note 3).
The loss of prodrug was then fit to the equation for first order decay:
Fraction Prodrug=(Initial Fraction prodrug)*e^−kt
where t=time (in hours) and k is the rate constant for decay. Finally, the half-lives are were calculated as
Note 1: The acetonitrile concentration is not expected to have a large impact on the degradation rate since the rate follows first order decay with respect to compound (ie, the rate constant is independent of the concentration). […]

[3] = Pharmacokinetic evaluation of asenapine and asenapine prodrugs in rats; type: in vivo, Sprague-Dawley rats; settings: rat plasma, 10 mg/rat IM, suspension in 1% HPMC in PBS saline with 0.2% Tween pH 6.0; FIG. 3
Experimental: Animals: 18 Male Sprague-Dawley rats (Charles River Laboratories, Wilmington, Mass.) were used in the study. Three groups of 6 rats were used and are referred to in this study as Groups A, B and C. Rats were approximately 350-375 g at time of arrival. Rats are housed 2 per cage with ad libitum chow and water. Environmental conditions in the housing room: 64-67° F., 30% to 70% relative humidity, and 12:12-h light:dark cycle. All experiments were approved by the institutional animal care and use committee.
Test Compounds: The following formulations of Asenapine parent drug and prodrug compounds of the invention were used in the study.
Pharmacokinetics study: Rats were dosed IM by means of a 23 gauge, 1 in. needle with 1 cc syringe 0.3 mL suspension was withdrawn from the vial containing the test compound. The rat was injected in the muscles of the hind limb after anesthesia with isoflourane. Blood samples were collected via a lateral tail vein after brief anesthesia with Isoflurane. A 27½G needle and 1 cc syringe without an anticoagulant was used for the blood collection. […]
Data Analysis: Drug concentrations in plasma samples were analyzed by liquid chromatography—mass spectroscopy using appropriate parameters for each compound. Half-life, volume of distribution, clearance, maximal concentration, and AUC were calculated by using WinNonlin version 5.2 software (Pharsight, St. Louis, Mo.).

Question: Which “Affinity relative to D2 receptors” value [1] does the source give for `CN1CC2c3ccccc3Oc3ccc(Cl)cc3C2C1` (stereo not shown) [Asenapine] here?
Answer: Its value is “higher affinity”.

Question: And the Affinity (muscarinic receptors)?
Answer: Its Affinity is “minimal affinity”.

Question: With `CC(C)(C)C(=O)OC[N+]1(C)CC2c3ccccc3Oc3ccc(Cl)cc3C2C1.[Cl-]` (stereo not shown) [asenapine pivalate] as the compound, how does the “Solution stability (loss of prodrug to asenapine)” value [2] read?
Answer: Its value is “more stable than the asenapine octanoate”.

Question: With `CCC(C)(C)C(=O)OC[N+]1(C)CC2c3ccccc3Oc3ccc(Cl)cc3C2C1.[I-]` (stereo not shown) [ASN-83, Asenapine dimethyl butyrate prodrug] as the compound, how does the Cmax [3] read?
Answer: Its Cmax is “lower than the Cmax of the parent Asenapine formulation as well as lower than that of the Asenapine palmitate prodrug (ASN-76)”.
